These results are taken from patent publication US20090176811A1, “Substituted 5,6,7,8-Tetrahydro-pyrido[4,3-d]pyrimidine-2-yl Compounds and 5,6,7,8-Tetrahydro-quinazoline-2-yl Compounds” (GRUENENTHAL GmbH, priority 2004, published 2009).

The target of this test is T1, 5-HT transporter (Rattus norvegicus, UniProt P31652).
T1 construct: from tissue; host or cells: rat medulla and pons synaptosomes (P2 fraction)
T1 sequence (P31652 whole entry): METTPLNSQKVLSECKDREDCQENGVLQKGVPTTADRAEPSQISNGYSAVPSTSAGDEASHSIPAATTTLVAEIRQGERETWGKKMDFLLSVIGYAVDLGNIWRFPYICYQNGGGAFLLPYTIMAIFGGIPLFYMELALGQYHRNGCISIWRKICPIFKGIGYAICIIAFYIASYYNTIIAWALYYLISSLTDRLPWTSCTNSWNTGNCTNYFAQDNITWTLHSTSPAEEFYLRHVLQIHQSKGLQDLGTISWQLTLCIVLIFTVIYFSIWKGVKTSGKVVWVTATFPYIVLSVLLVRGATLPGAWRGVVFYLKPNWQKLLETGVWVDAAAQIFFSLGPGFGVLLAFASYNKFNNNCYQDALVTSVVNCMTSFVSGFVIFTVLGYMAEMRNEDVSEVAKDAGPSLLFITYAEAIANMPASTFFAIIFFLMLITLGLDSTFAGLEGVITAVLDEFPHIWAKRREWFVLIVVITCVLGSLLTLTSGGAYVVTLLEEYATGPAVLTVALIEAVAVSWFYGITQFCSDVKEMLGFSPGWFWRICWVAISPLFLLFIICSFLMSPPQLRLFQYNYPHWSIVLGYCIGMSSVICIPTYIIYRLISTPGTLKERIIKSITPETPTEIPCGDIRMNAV
Description: 5-HT uptake inhibition in rat brain synaptosomes (medulla and pons). The class given is biochemical. The source says:
I. Method for Determining Noradrenalin and 5-HT Uptake Inhibition:
Synaptosomes from rat brain regions are freshly isolated for in vitro studies, as described in the publication “The isolation of nerve endings from brain” by E. G. Gray and V. P. Whittaker, J. Anatomy 96, pages 79-88, 1962. The corresponding literature description is hereby introduced as a reference and is deemed to be part of the disclosure.
The tissue (hypothalamus for the determination of noradrenalin uptake inhibition and medulla and pons for the determination of 5-HT uptake inhibition) is homogenised in ice-cooled 0.32 M sucrose (100 mg of tissue/1 mL) in a glass homogeniser with Teflon pestle using five complete up and down strokes at 840 revolutions/minute.
The homogenate is centrifuged at 4° C. for 10 minutes at 1000 g. After subsequent centrifugation at 17000 g for 55 minutes, the synaptosomes (P2 fraction) are obtained, which are resuspended in 0.32 M […] (0.5 mL/100 mg of original weight).
The particular uptake is measured in a 96-well microtitre plate. The volume is 250 μl and the incubation proceeds at room temperature (approx. 20-25° C.) under an O2 atmosphere.
The incubation time is 7.5 minutes for [^3H]-NA and 5 minutes for [^3H]-5-HT.
The 96 samples are then filtered through a Unifilter GF/B microtitre plate (Packard) and washed with 200 mL of incubated buffer using a “Brabdel MPXRI-96T Cell-Harvester”. The Unifilter GF/B plate is dried for 1 hour at 55° C. The plate is then sealed with a Back seal (Packard) and 35 μl of scintillation fluid are added per well (Ultima Gold, Packard). After sealing with a top seal (Packard) and establishing an equilibrium (around 5 hours), radioactivity is determined in a “Trilux 1450 Microbeta” (Wallac).
The quantity of protein used in the above determination corresponds to the values known from the literature, as for example described in “Protein measurement with the folin phenol reagent”, Lowry et al., J. Biol. Chem., 193, 265-275, 1951.
A detailed description of the method may additionally be found in the literature, for example in M. Ch. Frink, H.-H. Hennies, W. Engelberger, M. Haurand and B. Wilffert (1996) Arzneim.-Forsch./Drug Res. 46 (III), 11, 1029-1036.
The corresponding literature descriptions are hereby introduced in each case as a reference and are deemed to be part of the present disclosure.
The following characteristics were determined for the NA or 5-HT transporter: […]
In the case of `CCCC(=O)Nc1ncc2c(n1)CCC(NS(=O)(=O)CC13CCC(CC1=O)C3(C)C)C2` (stereo not drawn) [Example 162, N-[6-(7,7-dimethyl-2-oxo-bicyclo[2.2.1]hept-1-ylmethanesulfonylamino)-5,6,7,8-tetrahydro-quinazolin-2-yl]-butyramide], the inhibition at 1 µM stood at 29%.
Next, `O=C(Nc1ncc2c(n1)CCN(C(=O)c1cc(F)cc3c1OCOC3)C2)c1ccccc1C(F)(F)F` [Example 103, N-[6-(6-fluoro-4H-benzo[1,3]dioxin-8-carbonyl)-5,6,7,8-tetrahydro-pyrido[4,3-d]pyrimidin-2-yl]-2-trifluoromethyl-benzamide]: 65%.
Next, `CC1(C)C2CCC1(CS(=O)(=O)N1CCc3nc(NC(=O)c4cccc(F)c4)ncc3C1)C(=O)C2` (stereo not drawn) [Example 102, N-[6-(7,7-dimethyl-2-oxo-bicyclo[2.2.1]hept-1-ylmethanesulfonyl)-5,6,7,8-tetrahydro-pyrido[4,3-d]pyrimidin-2-yl]-3-fluoro-benzamide]: 63%; `CCCC(=O)Nc1ncc2c(n1)CCC(NS(=O)(=O)c1ccc(C(C)(C)CC)cc1)C2` (stereo not drawn) [Example 167, N-{6-[4-(1,1-dimethyl-propyl)-benzenesulfonylamino]-5,6,7,8-tetrahydro-quinazolin-2-yl}-butyramide]: 32%.
Turning to `Cc1ccc(C(=O)Nc2ncc3c(n2)CCN(C(=O)c2ccc(SC(F)(F)F)cc2)C3)cc1` [Example 148, 4-methyl-N-[6-(4-trifluoromethylsulfanyl-benzoyl)-5,6,7,8-tetrahydro-pyrido[4,3-d]pyrimidin-2-yl]-benzamide], the inhibition at 1 µM came out at 32%.
Consider `O=C(Nc1ncc2c(n1)CCC(NS(=O)(=O)Cc1ccccc1)C2)c1cccs1` (stereo not drawn) [Example 165, thiophene-2-carboxylic acid (6-phenylmethanesulfonylamino-5,6,7,8-tetrahydro-quinazolin-2-yl)-amide], for which the inhibition at 1 µM came out at 35%.
For the molecule `CC(C)(C)OC(=O)NCCC(=O)NC1CCc2nc(NC(=O)c3cccs3)ncc2C1` (stereo not drawn) [Example 149, (2-{2-[(thiophene-2-carbonyl)-amino]-5,6,7,8-tetrahydro-quinazolin-6-ylcarbamoyl}-ethyl)-carbamic acid tert-butyl ester], 1 µM produced 32% inhibition.
`CCc1ccc(C(=O)Nc2ncc3c(n2)CCN(C(=O)c2ccc4ncccc4c2)C3)cc1` [Example 173, 4-ethyl-N-[6-(quinoline-6-carbonyl)-5,6,7,8-tetrahydro-pyrido[4,3-d]pyrimidin-2-yl]-benzamide] registered an inhibition at 1 µM of 69%.
`CCCS(=O)(=O)NC1CCc2nc(NC(=O)c3ccc(F)cc3)ncc2C1` (stereo not drawn) [Example 160, 4-fluoro-N-[6-(propane-1-sulfonylamino)-5,6,7,8-tetrahydro-quinazolin-2-yl]-benzamide] registered an inhibition at 1 µM of 40%.
Regarding `Cc1ccc([N+](=O)[O-])cc1S(=O)(=O)N1CCc2nc(NC(=O)c3ccccc3F)ncc2C1` [Example 150, 2-fluoro-N-[6-(2-methyl-5-nitro-benzenesulfonyl)-5,6,7,8-tetrahydro-pyrido[4,3-d]pyrimidin-2-yl]-benzamide], testing at 1 µM gave an inhibition of 54%.
Next, `O=C(NC1CCc2nc(NC(=O)c3cccs3)ncc2C1)c1cc(F)cc(F)c1` (stereo not drawn) [Example 97, thiophene-2-carboxylic acid [6-(3,5-difluoro-benzoylamino)-5,6,7,8-tetrahydro-quinazolin-2-yl]-amide]: 30%; `CCN(CC)C(=O)CCC(=O)N1CCc2nc(NC(=O)c3cc(Cl)cc(Cl)c3)ncc2C1` [Example 171, 3,5-dichloro-N-[6-(3-diethylcarbamoyl-propionyl)-5,6,7,8-tetrahydro-pyrido[4,3-d]pyrimidin-2-yl]-benzamide]: 32%.

A word on the inhibition: it is the drop in the measured response relative to a control, in per cent. Low readings indicate a weak effect, high ones a strong effect.
